# Results taken from patent US7135572B2 (CJ Corp, priority 2001, dated 2006).
# How the values were obtained:
# [1] = biological target: T1, cyclooxygenase-1 (Homo sapiens, UniProt P23219); assay: Inhibition of cyclooxygenase-1 in U-937 cells (PGE2 quantitation); type: cell-based; settings: U-937 cells
# T1 construct: The cultured U-937 (humane lymphoma cell, obtained from Korean cell line bank) was centrifuged to collect the pellet; endogenous in cells; host or cells: U-937 (human lymphoma cell line, Korean cell line bank)
# T1 sequence (P23219 24-599): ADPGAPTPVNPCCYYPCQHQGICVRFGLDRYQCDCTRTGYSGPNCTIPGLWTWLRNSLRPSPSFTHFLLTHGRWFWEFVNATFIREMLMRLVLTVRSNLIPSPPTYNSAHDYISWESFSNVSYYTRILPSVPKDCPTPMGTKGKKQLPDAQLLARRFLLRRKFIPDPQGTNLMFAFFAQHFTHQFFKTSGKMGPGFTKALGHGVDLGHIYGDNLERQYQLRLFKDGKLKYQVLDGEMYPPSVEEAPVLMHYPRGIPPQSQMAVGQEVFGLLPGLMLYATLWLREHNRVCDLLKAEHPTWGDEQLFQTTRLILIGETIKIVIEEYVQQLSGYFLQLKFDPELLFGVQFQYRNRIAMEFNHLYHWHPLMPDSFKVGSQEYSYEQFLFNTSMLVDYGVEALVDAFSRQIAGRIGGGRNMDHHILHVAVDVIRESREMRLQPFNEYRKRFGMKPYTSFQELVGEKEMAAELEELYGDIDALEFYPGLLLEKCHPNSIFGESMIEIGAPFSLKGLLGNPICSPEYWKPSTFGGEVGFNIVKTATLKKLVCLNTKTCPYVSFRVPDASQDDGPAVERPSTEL
# Method: (§1) In order to investigate pharmacologically the selective inhibition activity against cyclooxygenase-2 enzyme, the inhibitive effects against cyclooxygenase-1 and cyclooxygenase-2 were measured by two methods as follows.
# Then, the pellet was diluted with 1×HBSS(Hank's balanced salt solutin) at the concentration of 1×10^6 cells/ml, and 1 ml of them was transferred into each well of 12-well plates, and then dissolved with DMSO. 5μl of the diluted sample solution, and 5μl of DMSO vehicle were added therein and mixed, and the mixture was cultured at 37° C. in Co2 incubator for 15 minutes. Arachidonic acid as a substrate was dissolved in ethanol to prepare a stock solution with a concentration of 10 mM, followed by diluting with 1×HBSS to prepare the solution of 1 mM. 10 μl of 1 mM Arachidonic acid solution was added to each of the treated wells, and the mixture was cultured at 37° C. in CO2 incubator for 30 minutes. The cell solution of each well was collected in the centrifuge tube and was centrifuged at 4° C. for 5 minutes at 10,000 rpm. As PGE2 existed in the supernatant separated from collected cell, the concentration of PGE2 was quantitated by using monoclonal kit from Cayman Chemicals, and the concentration of samples and vehicle were compared to estimate the inhibition ratio (%) of each compound against cyclooxygenase-1. Ultimately, the inhibition effect against the cyclooxygenase-1 enzyme was obtained from the result.
# [2] = biological target: T2, cyclooxygenase-2 (Mus musculus, UniProt Q05769); assay: Inhibition of cyclooxygenase-2 in Raw 264.7 cells treated with interferon γ and LPS (PGE2 EIA); type: cell-based; settings: for Inhibitory effects of cyclooxygenase (COX): COX-2: Raw 264.7 cells; for selectivity of cyclooxygenase-2 compared with the comparative substance (in words): COX-2 versus COX-1
# T2 construct: endogenous in cells; host or cells: Raw 264.7 (Korean cell line bank), aspirin-pretreated, induced with interferon gamma and LPS
# T2 sequence (Q05769 18-604): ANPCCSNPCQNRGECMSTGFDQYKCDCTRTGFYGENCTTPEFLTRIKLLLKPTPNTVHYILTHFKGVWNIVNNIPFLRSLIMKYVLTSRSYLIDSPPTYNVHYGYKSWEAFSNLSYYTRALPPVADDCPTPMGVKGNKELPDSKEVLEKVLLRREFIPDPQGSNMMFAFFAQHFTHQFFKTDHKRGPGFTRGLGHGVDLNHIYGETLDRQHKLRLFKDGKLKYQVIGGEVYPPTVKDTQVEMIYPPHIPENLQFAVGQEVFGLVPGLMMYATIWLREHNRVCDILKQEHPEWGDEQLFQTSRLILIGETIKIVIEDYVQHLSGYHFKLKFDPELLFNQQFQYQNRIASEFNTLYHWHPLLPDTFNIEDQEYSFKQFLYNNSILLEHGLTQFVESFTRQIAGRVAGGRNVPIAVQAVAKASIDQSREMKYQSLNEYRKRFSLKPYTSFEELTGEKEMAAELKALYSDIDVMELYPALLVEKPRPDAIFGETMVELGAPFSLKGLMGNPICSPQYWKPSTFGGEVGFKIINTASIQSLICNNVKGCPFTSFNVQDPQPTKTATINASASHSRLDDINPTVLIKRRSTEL
# Method: as §1
# And then, each samples were replaced with new media and cultured for 30 minutes. In addition, the samples was treated with 100 units/ml of interferon Υ and 100 ng/ml of lipopolysaccharide(LPS), and cultured for 18 hours. Then, the media was transferred to other tubes and the PGE 2 was quantitated by using EIA kit from Cayman Chemicals.
SMILES,Inhibitory effects of cyclooxygenase (COX): COX-1 ([1]; 3 μM) [% inhibition],Inhibitory effects of cyclooxygenase (COX): COX-1 ([1]; 10 μM) [% inhibition],Inhibitory effects of cyclooxygenase (COX): COX-1 ([1]; 30 μM) [% inhibition],Inhibitory effects of cyclooxygenase (COX): COX-2 ([2]; 30 nM) [% inhibition],Inhibitory effects of cyclooxygenase (COX): COX-2 ([2]; 100 nM) [% inhibition],Inhibitory effects of cyclooxygenase (COX): COX-2 ([2]; 300 nM) [% inhibition],selectivity of cyclooxygenase-2 compared with the comparative substance (in words) [2]
"Cc1nc(-c2ccc(Br)cc2)n(-c2ccc(S(N)(=O)=O)cc2)n1 [Example 4, 4-[5-(4-bromo-phenyl)-3-methyl-[1,2,4]triazole-1-yl]-benzenesulfonamide]",85.6,87.7,91.1,64.2,99.0,99.8,hardly different
"Cc1nc(-c2cccc(F)c2)n(-c2ccc(S(N)(=O)=O)cc2)n1 [Example 7, 4-[5-(3-fluoro-phenyl)-3-methyl-[1,2,4]triazole-1-yl]-benzenesulfonamide]",21.1,24.4,28.1,54.3,55.0,55.3,
"Cc1nc(-c2cccc(Cl)c2)n(-c2ccc(S(N)(=O)=O)cc2)n1 [Example 8, 4-[5-(3-chloro-phenyl)-3-methyl-[1,2,4]triazole-1-yl]-benzenesulfonamide]",62.0,75.1,84.7,31.3,52.6,50.5,
"Cc1nc(-c2ccc(Cl)cc2)n(-c2ccc(S(N)(=O)=O)cc2)n1 [Example 3, 4-[5-(4-chloro-phenyl)-3-methyl-[1,2,4]triazole-1-yl]-benzenesulfonamide]",0.1,13.8,29.7,40.0,74.1,82.9,
"Cc1nc(-c2ccccc2)n(-c2ccc(S(N)(=O)=O)cc2)n1 [Example 1, 4-(3-methyl-5-phenyl-[1,2,4]triazole-1-yl)-benzenesulfonamide]",12.1,25.9,53.1,48.5,50.0,81.4,
"Cc1ccc(-c2nc(C)nn2-c2ccc(S(N)(=O)=O)cc2)cc1 [Example 5, 4-(3-methyl-5-p-toly-[1,2,4]triazole-1-yl)-benzenesulfonamide]",48.6,61.1,79.7,45.3,53.3,75.2,
"COc1cc(OC)cc(-c2nc(C)nn2-c2ccc(S(N)(=O)=O)cc2)c1 [Example 13, 4-[5-(3,5-dimethoxy-phenyl)-3-methyl-[1,2,4]triazole-1-yl]-benzenesulfonamide]",63.8,65.9,76.8,37.9,56.1,59.3,
"Cc1nc(-c2cccc(Br)c2)n(-c2ccc(S(N)(=O)=O)cc2)n1 [Example 9, 4-[5-(3-bromo-phenyl)-3-methyl-[1,2,4]triazole-1-yl]-benzenesulfonamide]",78.7,81.9,89.5,66.5,89.2,99.2,hardly different
"COc1ccc(-c2nc(C)nn2-c2ccc(S(N)(=O)=O)cc2)cc1 [Example 6, 4-[5-(4-methoxy-phenyl)-3-mehtyl-[1,2,4]triazole-1-yl]-benzenesulfonamide]",78.6,85.6,94.5,68.8,99.2,99.9,hardly different
"Cc1nc(-c2ccc(Cl)cc2)n(-c2ccc(S(N)(=O)=O)cn2)n1 [Example 16, 6-[5-(4-chloro-phenyl)-3-methyl-[1,2,4]triazole-1-yl]-pyridine-3-sulfonic acid amide]",24.5,43.2,55.1,32.4,34.1,85.2,
"COc1ccc(-c2nc(C)nn2-c2ccc(S(N)(=O)=O)cc2)cc1OC [Example 12, 4-[5-(3,4-dimethoxy-phenyl)-3-mehtyl-[1,2,4]triazole-1-yl]-benzenesulfonamide]",27.3,34.3,37.7,30.3,55.8,70.4,
